# Measured values: patent US5187103A, “Colorimetric method and reagent for the assay of lithium in a test sample” (Miles Inc., priority 1991, dated 1993)
# Assays:
# [1] = Ion selectivity and sensitivity of larger cavity cryptand analogs
# [2] = pKa in 10% DEGMEE-water, determined spectrophotometrically (Table II); assay type: physicochemical; settings: for pKa: spectrophotometric
# [3] = UV-VIS spectra of the cryptand in complexation with various ions (Table I); assay type: physicochemical
# Protocol: (§1) The UV-VIS spectra of p-nitrophenylazophenol (1.1.0) cryptand in complexation with various ions, i.e. Na^+ K^+, and Li^+, were determined in 1 to 2×10^-4 M solutions of the cryptand in 2 to 50% volume to volume (v/v) DEGMEE in water. A 1×10^-2 M stock solution of the cryptand was prepared in DEGMEE. Typically, the solutions were prepared as follows: for the spectral characteristics in 10% v/v DEGMEE, 0.2 ml of the stock solution was added to 0.8 ml DEGMEE. The diluted cryptand was quantitatively transferred to 9.0 ml of the appropriate reagent and mixed. 1N HCl was used to obtain the acid form (HL) and 1M TMAOH for the base form of the cryptand which is designated in the following tables as L. Tne resulting solutions were scanned from 700 to 300 nm on a Beckman DU-8 spectrophotometer. The spectra of the cation complexes of p-nitrophenylazophenol (1.1.0) cryptand in 10% v/v DEGMEE/1M TMAOH were obtained by adding 0.02 ml LiCl, KCl, NaCl, all 1N to their respective cuvettes containing 2 ml of reagent and scanned from 700 to 300 nm.
# Table I records the wavelength maxima and absorptivities of p-nitrophenylazophenol (1.1.0) cryptand when exposed to Na^+, K^+ and Li^+ ions in 10% v/v DEGMEE.
# [4] = Selectivity for Li^+ over Na^+ and other cations (slopes of response curves); settings: sample to reagent ratio 1:40
# Excerpt: By taking the ratio of the slope of the respective response curves, one obtains approximate selectivity of 4000:1 for Li^+ /Na^+.
# [5] = Spectral response to lithium (analytical wavelength); assay type: physicochemical
# Protocol: as §1
# [6] = Effect of organic solvent (DEGMEE) concentration on sensitivity and selectivity; settings: 2.5% DEGMEE
# Protocol: as §1
# However, high concentration of solvent also affects the selectivity; at 25% DEGMEE, interference by 140 mM Na^+ corresponds to 0.1 mM Li^+, which is not acceptable for clinical purposes. The selectivity requirements of the lithium assay are high, in certain cases where the concentration of lithium is near 0.1 mM, the molar ratio of Li^+ :Na^+ is about 1:1500. […]
# [7] = Effect of pH on response to cations in 10% v/v DEGMEE (Table III); assay type: physicochemical
# Protocol: as §1
# A zwitterionic buffer CAPS was used (Table III).
# [8] = Effect of non-ionic surfactant on wavelength maxima and absorptivities (first Table IV); assay type: physicochemical; settings: Brij-35 and Triton X-100 at 1% w/v; cryptand and its lithium complex
# Excerpt: Non-ionic surfactants are known to interact with monoazo dyes producing a disturbance of the electronic spectrum.
# [9] = 10% v/v DEGMEE, HL in 1N HCl, L and complexes in 1M TMAOH
compound,measurement,setting,value
"O=[N+]([O-])c1ccc(N=Nc2cc3c(O)c(c2)CCN2CCOCCOCCN(CCOCCOCC2)CC3)cc1 [(2.2.0) cryptand, reference compound]",selectivity and sensitivity,[1]; effect of increased cavity size,more selective for potassium over sodium and lithium
same,pKa,[2],11.1
O=[N+]([O-])c1ccc(N=Nc2cc3c(O)c(c2)CCN2CCOCCN(CCOCC2)CC3)cc1 [HL],λmax 1,[3]; [9],494 nm
same,λmax 2,[3]; [9],363 nm
same,ε 1,"[3]; absorptivity at λmax 1, 10% v/v DEGMEE","8,800 M^-1 cm^-1"
same,ε 2,"[3]; absorptivity at λmax 2, 10% v/v DEGMEE","8,000 M^-1 cm^-1"
O=[N+]([O-])c1ccc(N=Nc2cc3c(O)c(c2)CCCN2CCOCCN(CCC3)CCOCC2)cc1 [extended (1.1.0) cryptand],response to lithium,[1]; extraction mode,very good response to lithium in the extraction mode
same,pKa,[2],11.5
O=[N+]([O-])c1ccc(N=Nc2cc3c(O)c(c2)CCN2CCOCCN(CCOCC2)CC3)cc1 [p-nitrophenylazophenol (1.1.0) cryptand],selectivity over sodium,[4],almost total selectivity over sodium
same,wavelength of decrease in absorbance with lithium,[5],600 nm
same,wavelength of increase of the lithium complex,[5],534 nm
same,reduction of response to lithium,[6],25%
same,shift and absorptivity change with pH,[7],bathochromic shift with concurrent increase in absorptivity
same,wavelength maxima and absorptivities of acid form,[3]; acid form,two wavelength maxima (Table I) of equivalent absorptivities
same,effect of surfactant on λmax and absorptivities,[8],substantial bathochromic shift of the λmax and an increase in the absorptivities
same,pKa compared with larger cavity analogs or usual,[2],Higher than usual pKa
same,pKa,[2],12.6
